In experiment [1] the test system is Puccinia triticina; Synonym: Puccinia recondita f sp. tritici. In words: Wheat Brown Rust (PUCCRT) fungicidal activity on wheat seedlings. To be noted: for pest or weed control at 100 ppm: High Volume; for pest or weed control at 121.5 g/ha: Low Volume, 121.5 g/H. It counts as in vivo. The essentials:
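Yuma wheat seedlings (first leaf emerged) were sprayed to run-off with compound in acetone/water 1:9 (110 ppm Triton X-100), and P. triticina spores were inoculated before or after treatment. Plants were kept overnight in a 22 °C dark dew room at 100% RH, then moved to a 24 °C greenhouse; % control was based on first-leaf severity (0–100%) versus untreated plants.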

Experiment [2] deals with Mycosphaerella graminicola; Anamorph: Septoria tritici. In words: Leaf Blotch of Wheat (SEPTTR) fungicidal activity on wheat seedlings. It counts as in vivo. The settings on record: Zymoseptoria tritici; for pest or weed control at 121.5 g/ha: Low Volume, 121.5 g/H. The essentials:
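Compounds in acetone were diluted with nine volumes of water containing 110 ppm Triton X-100, or as EC formulations with 0.1% Trycol 5941 for track spray. They were sprayed on first-leaf Yuma wheat seedlings inoculated with S. tritici before or after treatment. Plants spent 1 day dark and 2–3 days lit at 100% RH, 20 °C. Severity (0–100%) was scored once untreated plants were fully diseased; control was computed relative to untreated plants.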

The mark [3] stands for this setting: 24 h, 1 Day Protectant, read-out: PUCCRT 1DP disease control.
Where [4] appears, read: 72 h, 3 Day Curative, read-out: PUCCRT 3DC disease control.
[5] abbreviates: 24 h, High Volume, 100 ppm, 1 Day Protectant, read-out: SEPTTR 1DP disease control.
Where [6] appears, read: 72 h, High Volume, 100 ppm, 3 Day Curative, read-out: SEPTTR 3DC disease control.
The mark [7] stands for this setting: 24 h, 1 Day Protectant, read-out: SEPTTR 1DP disease control.
[8] abbreviates: 72 h, 3 Day Curative, read-out: SEPTTR 3DC disease control.

Read-outs that look alike come from different tables or passages of the source. Some results are limits rather than exact numbers.

Consider `COc1ccnc(C(=O)N[C@@H](C)C(=O)O[C@@H](C)C(c2cccc(Cl)c2)c2cccc(Cl)c2)c1O` [Cmpd 100], for which the pest or weed control at 100 ppm in experiment [1] (setting [3]), in experiment [1] (setting [4]), in experiment [2] (setting [5]) and in experiment [2] (setting [6]) was more than 80% each time.
As for `COc1ccnc(C(=O)N[C@@H](C)C(=O)O[C@@H](C)C(c2ccc(F)cc2F)c2ccc(F)cc2F)c1O` [Cmpd 96], the pest or weed control at 100 ppm in experiment [1] (setting [3]), in experiment [1] (setting [4]), in experiment [2] (setting [5]) and in experiment [2] (setting [6]) was more than 80% in each case.
`COc1ccnc(C(=O)N[C@@H](C)C(=O)O[C@@H](C)C(O)(c2ccc(Cl)c(F)c2)c2ccc(Cl)c(F)c2)c1O` [Cmpd 128]: the pest or weed control at 100 ppm in experiment [1] (setting [3]) is less than 80%; in experiment [2] (setting [5]) it was more than 80%; in experiment [2] (setting [6]), less than 80%.
With `COc1ccnc(C(=O)N[C@@H](C)C(=O)O[C@@H](C)C(c2ccc(C)c(F)c2)c2ccc(C)c(F)c2)c1O` [Cmpd 120], the pest or weed control at 100 ppm is more than 80% in experiment [1] (setting [3]), less than 80% in experiment [1] (setting [4]), more than 80% in experiment [2] (setting [5]) and more than 80% in experiment [2] (setting [6]).
As to `COc1ccnc(C(=O)N[C@@H](C)C(=O)O[C@@H](C)C(O)(c2ccc(Cl)c(Cl)c2)c2ccc(Cl)c(Cl)c2)c1OCOC(C)=O` [Cmpd 201], the pest or weed control at 121.5 g/ha in experiment [1] (setting [3]) is less than 80%; in experiment [2] (setting [7]), more than 80%; in experiment [2] (setting [8]), more than 80%.
For `COc1ccnc(C(=O)N[C@@H](C)C(=O)O[C@@H](C)C(c2ccc(Br)cc2)c2ccc(Br)cc2)c1O` [Cmpd 103], the pest or weed control at 100 ppm in experiment [1] (setting [3]) is more than 80%; in experiment [1] (setting [4]) it was less than 80%; in experiment [2] (setting [5]) it was more than 80%; in experiment [2] (setting [6]) it was more than 80%.
For `COc1ccnc(C(=O)N[C@@H](C)C(=O)O[C@@H](C)C(c2ccc(Cl)c(C)c2)c2ccc(Cl)c(C)c2)c1O` [Cmpd 129], the pest or weed control at 100 ppm was more than 80% in experiment [1] (setting [3]), less than 80% in experiment [1] (setting [4]), more than 80% in experiment [2] (setting [5]) and more than 80% in experiment [2] (setting [6]).
With `COc1ccnc(C(=O)N[C@@H](C)C(=O)O[C@@H](C)C(c2cccc(Cl)c2)c2cccc(Cl)c2)c1OC(C)=O` [Cmpd 157], the pest or weed control at 121.5 g/ha in experiment [1] (setting [3]), in experiment [1] (setting [4]), in experiment [2] (setting [7]) and in experiment [2] (setting [8]) was more than 80% in each case.
With `CCc1ccc(C(c2ccc(CC)cc2)[C@H](C)OC(=O)[C@H](C)NC(=O)c2nccc(OC)c2OCOC(C)=O)cc1` [Cmpd 198], the pest or weed control at 121.5 g/ha in experiment [1] (setting [3]) was more than 80%; in experiment [1] (setting [4]) it was less than 80%; in experiment [2] (setting [7]) it was more than 80%; in experiment [2] (setting [8]), more than 80%.
Turning to `COc1ccnc(C(=O)N[C@@H](C)C(=O)O[C@@H](C)C(c2ccccc2)c2ccccc2)c1O` [Cmpd 90, (S)-(S)-1,1-diphenylpropan-2-yl 2-(3-hydroxy-4-methoxypicolinamido)propanoate], the pest or weed control at 100 ppm was more than 80% in experiment [1] (setting [3]); more than 80% in experiment [1] (setting [4]); more than 80% in experiment [2] (24 h, read-out: SEPTTR 1DP disease control); more than 80% in experiment [2] (72 h, read-out: SEPTTR 3DC disease control).
With `CCOc1ccnc(C(=O)N[C@@H](C)C(=O)O[C@@H](C)C(c2ccc(F)cc2)c2ccc(F)cc2)c1OCOC(C)=O` [Cmpd 179], the pest or weed control at 121.5 g/ha in experiment [1] (setting [3]) was less than 80%; in experiment [2] (setting [7]), more than 80%; in experiment [2] (setting [8]), more than 80%.
As to `CC(=O)OCOc1cccnc1C(=O)N[C@@H](C)C(=O)O[C@@H](C)C(c1ccc(F)cc1)c1ccc(F)cc1` [Cmpd 178], the pest or weed control at 121.5 g/ha in experiment [1] (setting [3]) was less than 80%; in experiment [2] (setting [7]) it was more than 80%; in experiment [2] (setting [8]), more than 80%.
As to `COc1ccnc(C(=O)N[C@@H](C)C(=O)O[C@@H](C)C(c2cccc(F)c2)c2cccc(F)c2)c1O` [Cmpd 99], the pest or weed control at 100 ppm was more than 80% in experiment [1] (setting [3]), less than 80% in experiment [1] (setting [4]), more than 80% in experiment [2] (setting [5]) and more than 80% in experiment [2] (setting [6]).
Turning to `COc1ccc(C(c2ccc(OC)cc2)[C@H](C)OC(=O)[C@H](C)NC(=O)c2nccc(OC)c2OC(C)=O)cc1` [Cmpd 155], the pest or weed control at 121.5 g/ha in experiment [1] (setting [3]), in experiment [1] (setting [4]), in experiment [2] (setting [7]) and in experiment [2] (setting [8]) was more than 80% throughout.
With `COCCC(=O)Oc1c(OC)ccnc1C(=O)N[C@@H](C)C(=O)O[C@@H](C)C(c1ccc(F)cc1)c1ccc(F)cc1` [Cmpd 209], the pest or weed control at 121.5 g/ha in experiment [1] (setting [3]) is more than 80%; in experiment [1] (setting [4]), less than 80%; in experiment [2] (setting [7]), more than 80%; in experiment [2] (setting [8]) it was more than 80%.
For the compound `COc1ccnc(C(=O)N[C@H](C(=O)O[C@@H](C)C(c2ccc(F)cc2)c2ccc(F)cc2)C(C)C)c1OCOC(C)=O` [Cmpd 185], the pest or weed control at 121.5 g/ha in experiment [1] (setting [3]) was more than 80%; in experiment [1] (setting [4]), less than 80%; in experiment [2] (setting [7]), more than 80%; in experiment [2] (setting [8]) it was more than 80%.
In the case of `CCOC(c1ccccc1)(c1ccccc1)[C@H](C)OC(=O)[C@H](C)NC(=O)c1nccc(OC)c1OCOC(C)=O` [Cmpd 147], the pest or weed control at 121.5 g/ha in experiment [1] (setting [3]) is less than 80%; in experiment [1] (setting [4]), less than 80%; in experiment [2] (setting [7]), less than 80%; in experiment [2] (setting [8]) it was more than 80%.
For `COc1ccnc(C(=O)N[C@@H](C)C(=O)O[C@@H](C)[C@@H](c2ccccc2)c2ccc(C(F)(F)F)cc2)c1OC(C)=O` [Cmpd 173], the pest or weed control at 121.5 g/ha in experiment [1] (setting [3]) was more than 80%; in experiment [1] (setting [4]), less than 80%; in experiment [2] (setting [7]), more than 80%; in experiment [2] (setting [8]), more than 80%.
On to `COc1ccnc(C(=O)N[C@@H](C)C(=O)O[C@@H](C)C(c2ccc(C)c(Cl)c2)c2ccc(C)c(Cl)c2)c1OCOC(C)=O` [Cmpd 195], for which the pest or weed control at 121.5 g/ha in experiment [1] (setting [3]) was more than 80%; in experiment [1] (setting [4]) it was less than 80%; in experiment [2] (setting [7]), more than 80%; in experiment [2] (setting [8]), less than 80%.
With `COc1ccnc(C(=O)N[C@@H](CC(C)C)C(=O)O[C@@H](C)C(c2ccc(F)cc2)c2ccc(F)cc2)c1OCOC(C)=O` [Cmpd 186], the pest or weed control at 121.5 g/ha was less than 80% in experiment [1] (setting [3]), more than 80% in experiment [2] (setting [7]) and less than 80% in experiment [2] (setting [8]).
Regarding `COc1ccnc(C(=O)N[C@@H](C)C(=O)O[C@@H](C)C(c2cccs2)c2cccs2)c1O` [Cmpd 91], the pest or weed control at 100 ppm in experiment [1] (setting [3]) is more than 80%; in experiment [1] (setting [4]), less than 80%; in experiment [2] (setting [5]), more than 80%.
For `CC[C@H](NC(=O)c1nccc(OC)c1OC(C)=O)C(=O)O[C@@H](C)C(c1ccc(F)cc1)c1ccc(F)cc1` [Cmpd 188], the pest or weed control at 121.5 g/ha was more than 80% in experiment [1] (setting [3]), less than 80% in experiment [1] (setting [4]), more than 80% in experiment [2] (setting [7]) and more than 80% in experiment [2] (setting [8]).
With `COc1ccnc(C(=O)N[C@@H](C)C(=O)O[C@@H](C)[C@@H](c2ccccc2)c2ccc(C(F)(F)F)cc2)c1OCOC(C)=O` [Cmpd 175], the pest or weed control at 121.5 g/ha in experiment [1] (setting [3]), in experiment [1] (setting [4]), in experiment [2] (setting [7]) and in experiment [2] (setting [8]) was more than 80% throughout.
Turning to `COc1ccnc(C(=O)N[C@@H](C)C(=O)O[C@@H](C)[C@@H](c2ccccc2)c2ccc(F)cc2)c1OCOC(C)=O` [Cmpd 199], the pest or weed control at 121.5 g/ha in experiment [1] (setting [3]), in experiment [1] (setting [4]), in experiment [2] (setting [7]) and in experiment [2] (setting [8]) was more than 80% each time.
On to `COc1ccnc(C(=O)N[C@@H](C)C(=O)O[C@@H](C)C(c2ccc(C)cc2)c2ccc(C)cc2)c1OC(=O)C(C)C` [Cmpd 168], for which the pest or weed control at 121.5 g/ha in experiment [1] (setting [3]) is more than 80%; in experiment [1] (setting [4]), less than 80%; in experiment [2] (setting [7]), more than 80%; in experiment [2] (setting [8]) it was more than 80%.
With `COc1ccnc(C(=O)N[C@@H](C)C(=O)O[C@@H](C)C(c2cccs2)c2cccs2)c1OCOC(C)=O` [Cmpd 144], the pest or weed control at 121.5 g/ha in experiment [1] (setting [3]), in experiment [1] (setting [4]), in experiment [2] (setting [7]) and in experiment [2] (setting [8]) was less than 80% each time.
With `COc1ccnc(C(=O)N[C@@H](CC(C)C)C(=O)O[C@@H](C)C(c2ccc(F)cc2)c2ccc(F)cc2)c1O` [Cmpd 116], the pest or weed control at 100 ppm in experiment [1] (setting [3]), in experiment [2] (setting [5]) and in experiment [2] (setting [6]) was less than 80% each time.
